Measurements as given in patent publication US20220324815A1, “2-PHENOXY-PYRIMIDINE DERIVATIVES AS HERBICIDAL COMPOUNDS” (SYNGENTA CROP PROTECTION AG, priority 2019, published 2022).

Columns and labels:
Assay type in all cases: in vivo
Settings in all cases: 250 g/ha unless otherwise stated, evaluated after 13 days, five-point scale
[1] = tested on: Echinochloa crus-galli (ECHCG); assay: Test 1 glasshouse herbicide test, post-emergence application (Table B1)
Summary of the method: (§1)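 Pots sown in standard soil; sprayed 1 day (pre-emergence) or 8 days (post-emergence) after sowing at 250 g/ha unless stated, in acetone/water (50:50) with 0.5% Tween 20. Glasshouse 24/16 °C, 14 h light, 65% humidity; damage scored at 13 days on a 1–5 scale (5=81–100%, 1=0–20%).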

[2] = tested on: Ipomoea hederacea (IPOHE); assay: as above
Summary of the method: as §1

[3] = tested on: Lolium perenne (LOLPE); assay: as above
Summary of the method: as §1

[4] = tested on: Solanum nigrum (SOLNI); assay: as above
Summary of the method: as §1

[5] = tested on: Amaranthus retoflexus (AMARE); assay: as above
Summary of the method: as §1

[6] = tested on: Setaria faberi (SETFA); assay: as above
Summary of the method: as §1

[7] = tested on: Echinochloa crus-galli (ECHCG); assay: Test 1 glasshouse herbicide test, pre-emergence application (Table B2)
Summary of the method: as §1

[8] = tested on: Ipomoea hederacea (IPOHE); assay: as above
Summary of the method: as §1

[9] = tested on: Lolium perenne (LOLPE); assay: as above
Summary of the method: as §1

[10] = tested on: Solanum nigrum (SOLNI); assay: as above
Summary of the method: as §1

[11] = tested on: Amaranthus retoflexus (AMARE); assay: as above
Summary of the method: as §1

[12] = tested on: Setaria faberi (SETFA); assay: as above
Summary of the method: as §1

Compound	% phytotoxicity ECHCG, post-emergence application [1]	% phytotoxicity IPOHE, post-emergence application [2]	% phytotoxicity LOLPE, post-emergence application [3]	% phytotoxicity SOLNI, post-emergence application [4]	% phytotoxicity AMARE, post-emergence application [5]	% phytotoxicity SETFA, post-emergence application [6]	% phytotoxicity ECHCG, pre-emergence application [7]	% phytotoxicity IPOHE, pre-emergence application [8]	% phytotoxicity LOLPE, pre-emergence application [9]	% phytotoxicity SOLNI, pre-emergence application [10]	% phytotoxicity AMARE, pre-emergence application [11]	% phytotoxicity SETFA, pre-emergence application [12]
FC(F)(F)CCSc1ccccc1Oc1ncc(Cl)cn1 [Al]	4 (4=61 to 80%)	4 (4=61 to 80%)	4 (4=61 to 80%)	4 (4=61 to 80%)	5 (5=81 to 100%)	4 (4=61 to 80%)						
FC(F)(F)CCSc1ccccc1Oc1ncc(Cl)cn1 [Compound A1]							4 (4=61 to 80%)	3 (3=41 to 60%)	3 (3=41 to 60%)	4 (4=61 to 80%)	5 (5=81 to 100%)	5 (5=81 to 100%)
N#Cc1cccc(Oc2ncc(Br)cn2)c1S(=O)(=O)CCCC(F)(F)F [Compound A118]	4 (4=61 to 80%)	4 (4=61 to 80%)			5 (5=81 to 100%)	4 (4=61 to 80%)	5 (5=81 to 100%)	5 (5=81 to 100%)			5 (5=81 to 100%)	5 (5=81 to 100%)
N#Cc1cccc(Oc2ncc(Br)cn2)c1SCCCC(F)(F)F [Compound A119]	4 (4=61 to 80%)	4 (4=61 to 80%)			5 (5=81 to 100%)	4 (4=61 to 80%)	5 (5=81 to 100%)	5 (5=81 to 100%)			5 (5=81 to 100%)	5 (5=81 to 100%)
N#Cc1cccc(Oc2ncc(Br)cn2)c1S(=O)(=O)CCCCC(F)(F)F [Compound A120]	3 (3=41 to 60%)	4 (4=61 to 80%)			4 (4=61 to 80%)	3 (3=41 to 60%)	3 (3=41 to 60%)	5 (5=81 to 100%)			4 (4=61 to 80%)	4 (4=61 to 80%)
N#Cc1cccc(Oc2ncc(Br)cn2)c1SCCCCC(F)(F)F [Compound A121]	3 (3=41 to 60%)	3 (3=41 to 60%)			5 (5=81 to 100%)	4 (4=61 to 80%)	3 (3=41 to 60%)	2 (2=21 to 40%)			5 (5=81 to 100%)	5 (5=81 to 100%)
